Data from patent publication US20090226527A1, “Particulate-stabilized injectable pharmacutical compositions of posaconazole” (priority 2004, published 2009).
Values after ≈ are worked out from the molar mass of the structure shown.

Test system: infectious agents (strains tested)
Experiment: organism not typed
Format: cell-based

C[C@@H]1[C@H](O)[C@@H](C)/C=C/C=C/C=C/C=C/C=C/C=C/C=C/[C@H](O[C@@H]2O[C@H](C)[C@@H](O)[C@H](N)[C@@H]2O)C[C@@H]2O[C@](O)(C[C@@H](O)C[C@@H](O)[C@H](O)CC[C@@H](O)C[C@@H](O)CC(=O)O[C@H]1C)C[C@H](O)[C@H]2C(=O)O [Amphotericin]
MIC (Absidia spp, read-out: Geometric Mean MIC): 0.545 µg/mL (≈ 0.59 µM) | MIC (Absidia spp, read-out: MIC[90]): 0.25 to 2 µg/mL (≈ 0.271 to 2.16 µM) | MIC (Alternaria spp, read-out: Geometric Mean MIC): 0.852 µg/mL (≈ 0.922 µM) | MIC (Alternaria spp, read-out: MIC[90]): 4 µg/mL (≈ 4.33 µM) | MIC (Apophysomyces spp, read-out: Geometric Mean MIC): 0.5 µg/mL (≈ 0.541 µM) | MIC (Apophysomyces spp, read-out: MIC[90]): 0.031 to 4 µg/mL (≈ 0.0335 to 4.33 µM) | MIC (Aspergillus flavus, read-out: Geometric Mean MIC): 0.91 µg/mL (≈ 0.985 µM) | MIC (Aspergillus flavus, read-out: MIC[90]): 2 µg/mL (≈ 2.16 µM) | MIC (Aspergillus fumigatus, read-out: Geometric Mean MIC): 0.683 µg/mL (≈ 0.739 µM) | MIC (Aspergillus fumigatus, read-out: MIC[90]): 1 µg/mL (≈ 1.08 µM) | MIC (Aspergillus nidulans, read-out: Geometric Mean MIC): 0.758 µg/mL (≈ 0.82 µM) | MIC (Aspergillus nidulans, read-out: MIC[90]): 2 µg/mL (≈ 2.16 µM) | MIC (Aspergillus niger, read-out: Geometric Mean MIC): 0.36 µg/mL (≈ 0.39 µM) | MIC (Aspergillus niger, read-out: MIC[90]): 1 µg/mL (≈ 1.08 µM) | MIC (Aspergillus sydowii, read-out: Geometric Mean MIC): 1.26 µg/mL (≈ 1.36 µM) | MIC (Aspergillus sydowii, read-out: MIC[90]): 1 to 2 µg/mL (≈ 1.08 to 2.16 µM) | MIC (Aspergillus terreus, read-out: Geometric Mean MIC): 1.76 µg/mL (≈ 1.9 µM) | MIC (Aspergillus terreus, read-out: MIC[90]): 4 µg/mL (≈ 4.33 µM) | MIC (Aspergillus ustus, read-out: Geometric Mean MIC): 0.673 µg/mL (≈ 0.728 µM) | MIC (Aspergillus ustus, read-out: MIC[90]): 0.25 to 1 µg/mL (≈ 0.271 to 1.08 µM) | MIC (Bipolaris spp, read-out: Geometric Mean MIC): 0.25 µg/mL (≈ 0.271 µM) | MIC (Bipolaris spp, read-out: MIC[90]): 0.25 µg/mL (≈ 0.271 µM) | MIC (Bjerkandera adusta, read-out: Geometric Mean MIC): 0.215 µg/mL (≈ 0.233 µM) | MIC (Bjerkandera adusta, read-out: MIC[90]): 0.25 µg/mL (≈ 0.271 µM) | MIC (Blastomyces dermatitidis, read-out: Geometric Mean MIC): 0.153 µg/mL (≈ 0.166 µM) | MIC (Blastomyces dermatitidis, read-out: MIC[90]): 0.5 µg/mL (≈ 0.541 µM) | MIC (Candida albicans, read-out: Geometric Mean MIC): 0.686 µg/mL (≈ 0.742 µM) | MIC (Candida albicans, read-out: MIC[90]): 1 µg/mL (≈ 1.08 µM) | MIC (Candida dubliniensis, read-out: Geometric Mean MIC): 0.513 µg/mL (≈ 0.555 µM) | MIC (Candida dubliniensis, read-out: MIC[90]): 1 µg/mL (≈ 1.08 µM) | MIC (Candida tropicalis, read-out: Geometric Mean MIC): 0.774 µg/mL (≈ 0.838 µM) | MIC (Candida tropicalis, read-out: MIC[90]): 1 µg/mL (≈ 1.08 µM) | MIC (Clavispora lusitaniae, Candida lusitaniae, read-out: Geometric Mean MIC): 0.506 µg/mL (≈ 0.548 µM) | MIC (Clavispora lusitaniae, Candida lusitaniae, read-out: MIC[90]): 1 µg/mL (≈ 1.08 µM) | MIC (Coccidioides immitis, read-out: Geometric Mean MIC, Coccidioides immitis): 0.39 µg/mL (≈ 0.422 µM) | MIC (Coccidioides immitis, read-out: MIC[90], Coccidioides immitis): 0.5 µg/mL (≈ 0.541 µM) | MIC (Cryptococcus neoformans, read-out: Geometric Mean MIC): 0.667 µg/mL (≈ 0.722 µM) | MIC (Cryptococcus neoformans, read-out: MIC[90]): 1 µg/mL (≈ 1.08 µM) | MIC (Curvularia spp, read-out: Geometric Mean MIC): 0.5 µg/mL (≈ 0.541 µM) | MIC (Curvularia spp, read-out: MIC[90]): 0.5 µg/mL (≈ 0.541 µM) | MIC (Debaryomyces hansenii, Candida famata, read-out: Geometric Mean MIC): 0.841 µg/mL (≈ 0.91 µM) | MIC (Debaryomyces hansenii, Candida famata, read-out: MIC[90]): 2 µg/mL (≈ 2.16 µM) | MIC (Diutina rugosa, Candida rugosa, read-out: Geometric Mean MIC): 0.665 µg/mL (≈ 0.72 µM) | MIC (Diutina rugosa, Candida rugosa, read-out: MIC[90]): 1 µg/mL (≈ 1.08 µM) | MIC (Dujonia zeylanoides, Candida zeylanoides, read-out: Geometric Mean MIC): 1 µg/mL (≈ 1.08 µM) | MIC (Dujonia zeylanoides, Candida zeylanoides, read-out: MIC[90]): 1 µg/mL (≈ 1.08 µM) | MIC (Exophiala dermatidis, read-out: Geometric Mean MIC): 0.5 µg/mL (≈ 0.541 µM) | MIC (Exophiala dermatidis, read-out: MIC[90]): 0.5 µg/mL (≈ 0.541 µM) | MIC (Exophiala dermatitidis, Wangiella dermatitidis, read-out: Geometric Mean MIC): 0.63 µg/mL (≈ 0.682 µM) | MIC (Exophiala dermatitidis, Wangiella dermatitidis, read-out: MIC[90]): 0.25 to 1 µg/mL (≈ 0.271 to 1.08 µM) | MIC (Exophiala jeanselmei, read-out: Geometric Mean MIC): 0.66 µg/mL (≈ 0.714 µM) | MIC (Exophiala jeanselmei, read-out: MIC[90]): 1 µg/mL (≈ 1.08 µM) | MIC (Exophiala moniliae, read-out: Geometric Mean MIC): 0.177 µg/mL (≈ 0.192 µM) | MIC (Exophiala moniliae, read-out: MIC[90]): 0.125 to 0.25 µg/mL (≈ 0.135 to 0.271 µM) | MIC (Fonsecae pedrosoi, read-out: Geometric Mean MIC): 1 µg/mL (≈ 1.08 µM) | MIC (Fonsecae pedrosoi, read-out: MIC[90]): 1 µg/mL (≈ 1.08 µM) | MIC (Fusarium spp, read-out: Geometric Mean MIC): 1.2 µg/mL (≈ 1.3 µM) | MIC (Fusarium spp, read-out: MIC[90]): 2 µg/mL (≈ 2.16 µM) | MIC (Hansenula anomala, Pichia anomala, read-out: Geometric Mean MIC): 0.707 µg/mL (≈ 0.765 µM) | MIC (Hansenula anomala, Pichia anomala, read-out: MIC[90]): 1 µg/mL (≈ 1.08 µM) | MIC (Histoplasma capsulatum, read-out: Geometric Mean MIC, Histoplasma capsulatum): 0.25 µg/mL (≈ 0.271 µM) | MIC (Histoplasma capsulatum, read-out: MIC[90], Histoplasma capsulatum): 0.5 µg/mL (≈ 0.541 µM) | MIC (Kluyveromyces marxianus, Candida kefyr, read-out: Geometric Mean MIC): 0.779 µg/mL (≈ 0.843 µM) | MIC (Kluyveromyces marxianus, Candida kefyr, read-out: MIC[90]): 1 µg/mL (≈ 1.08 µM) | MIC (Kluyveromyces marxianus, read-out: Geometric Mean MIC): 1 µg/mL (≈ 1.08 µM) | MIC (Kluyveromyces marxianus, read-out: MIC[90]): 1 µg/mL (≈ 1.08 µM) | MIC (Lodderomyces parapsilosis, Candida parapsilosis, read-out: Geometric Mean MIC): 0.761 µg/mL (≈ 0.824 µM) | MIC (Lodderomyces parapsilosis, Candida parapsilosis, read-out: MIC[90]): 1 µg/mL (≈ 1.08 µM) | MIC (Meyerozyma guilliermondii, Candida guilliermondii, read-out: Geometric Mean MIC): 0.553 µg/mL (≈ 0.598 µM) | MIC (Meyerozyma guilliermondii, Candida guilliermondii, read-out: MIC[90]): 1 µg/mL (≈ 1.08 µM) | MIC (Mucor spp, read-out: Geometric Mean MIC): 0.274 µg/mL (≈ 0.297 µM) | MIC (Mucor spp, read-out: MIC[90]): 1 µg/mL (≈ 1.08 µM) | MIC (Nakaseomyces glabratus, Candida glabrata, read-out: Geometric Mean MIC): 0.798 µg/mL (≈ 0.864 µM) | MIC (Nakaseomyces glabratus, Candida glabrata, read-out: MIC[90]): 1 µg/mL (≈ 1.08 µM) | MIC (Paecilomyces spp, read-out: Geometric Mean MIC): 1.1 µg/mL (≈ 1.19 µM) | MIC (Paecilomyces spp, read-out: MIC[90]): 16 µg/mL (≈ 17.3 µM) | MIC (Papiliotrema laurentii, Cryptococcus laurentii, read-out: Geometric Mean MIC): 0.794 µg/mL (≈ 0.859 µM) | MIC (Papiliotrema laurentii, Cryptococcus laurentii, read-out: MIC[90]): 0.5 to 1 µg/mL (≈ 0.541 to 1.08 µM) | MIC (Paracoccidioides brasiliensis, read-out: Geometric Mean MIC, Paracoccidioides brasiliensis): 0.096 µg/mL (≈ 0.104 µM) | MIC (Paracoccidioides brasiliensis, read-out: MIC[90], Paracoccidioides brasiliensis): 0.25 µg/mL (≈ 0.271 µM) | MIC (Penicillium spp, read-out: Geometric Mean MIC): 1.02 µg/mL (≈ 1.11 µM) | MIC (Penicillium spp, read-out: MIC[90]): 4 µg/mL (≈ 4.33 µM) | MIC (Pichia etchel, read-out: Geometric Mean MIC): 0.063 µg/mL (≈ 0.0682 µM) | MIC (Pichia etchel, read-out: MIC[90]): 0.063 µg/mL (≈ 0.0682 µM) | MIC (Pichia kudriavzevii, Candida krusei, read-out: Geometric Mean MIC): 0.976 µg/mL (≈ 1.06 µM) | MIC (Pichia kudriavzevii, Candida krusei, read-out: MIC[90]): 2 µg/mL (≈ 2.16 µM) | MIC (Pleurothecium obovoideum, Ramichloridium obovoideum, read-out: Geometric Mean MIC): 1 µg/mL (≈ 1.08 µM) | MIC (Pleurothecium obovoideum, Ramichloridium obovoideum, read-out: MIC[90]): 1 µg/mL (≈ 1.08 µM) | MIC (Rhizomucor spp, read-out: Geometric Mean MIC): 0.063 µg/mL (≈ 0.0682 µM) | MIC (Rhizomucor spp, read-out: MIC[90]): 0.063 µg/mL (≈ 0.0682 µM) | MIC (Rhizopus spp, read-out: Geometric Mean MIC): 0.635 µg/mL (≈ 0.687 µM) | MIC (Rhizopus spp, read-out: MIC[90]): 2 µg/mL (≈ 2.16 µM) | MIC (Saccharomyces cerevisiae, read-out: Geometric Mean MIC): 0.775 µg/mL (≈ 0.839 µM) | MIC (Saccharomyces cerevisiae, read-out: MIC[90]): 1 µg/mL (≈ 1.08 µM) | MIC (Scedosporium apiospermum, read-out: Geometric Mean MIC): 2.27 µg/mL (≈ 2.46 µM) | MIC (Scedosporium apiospermum, read-out: MIC[90]): 8 µg/mL (≈ 8.66 µM) | MIC (Scedosporium boydii, Pseudallescheria boydii, read-out: Geometric Mean MIC): 1.72 µg/mL (≈ 1.86 µM) | MIC (Scedosporium boydii, Pseudallescheria boydii, read-out: MIC[90]): 4 µg/mL (≈ 4.33 µM) | MIC (Sporothrix schenckii, read-out: Geometric Mean MIC): 0.574 µg/mL (≈ 0.621 µM) | MIC (Sporothrix schenckii, read-out: MIC[90]): 1 µg/mL (≈ 1.08 µM) | MIC (Trichophyton mentagrophytes, read-out: Geometric Mean MIC): 1 µg/mL (≈ 1.08 µM) | MIC (Trichophyton mentagrophytes, read-out: MIC[90]): 1 µg/mL (≈ 1.08 µM) | MIC (Trichophyton tonsurans, read-out: Geometric Mean MIC): 1.26 µg/mL (≈ 1.36 µM) | MIC (Trichophyton tonsurans, read-out: MIC[90]): 0.5 to 8 µg/mL (≈ 0.541 to 8.66 µM) | MIC (Trichosporon spp, read-out: Geometric Mean MIC): 1.32 µg/mL (≈ 1.43 µM) | MIC (Trichosporon spp, read-out: MIC[90]): 1 to 2 µg/mL (≈ 1.08 to 2.16 µM) | MIC (Yarrowia lipolytica, read-out: Geometric Mean MIC): 0.5 µg/mL (≈ 0.541 µM) | MIC (Yarrowia lipolytica, read-out: MIC[90]): 0.5 µg/mL (≈ 0.541 µM)
